Read-outs that look alike come from different tables or passages of the source.
Test system: wild‐type BCG cells
Assay type: cell-based, M. bovis BCG
Details: for Mean Ratio: GDI5755_2d vs DMSO_2d; for Mean Ratio / Mean Ratio (GDI5755_2d vs DMSO_2d): up-regulated; for Mean_Ratio (GDI5755_3d vs DMSO_3d): down-regulated, 3 d; for Mean Ratio (GDI5755_2d vs DMSO_2d): 2d

O=C(Oc1ccc(Cl)cc1)c1ccc(N2CCOCC2)c([N+](=O)[O-])c1 [GDI‐5755]
0.758: Mean_Ratio (GDI5755_3d vs DMSO_3d) (protein A0A0H3M495, BCG_1238c (Rv1175c), Probable NADPH dependent 2,4-dienoyl-CoA reductase fadH)
0.751: Mean_Ratio (GDI5755_3d vs DMSO_3d) (protein A0A0H3MA81, BCG_1461c (Rv1400c), Probable lipase lipH)
1.34: Mean Ratio (GDI5755_2d vs DMSO_2d) (protein A0A0H3M331 Uncharacterized protein) | Mean Ratio (GDI5755_2d vs DMSO_2d) (protein A0A0H3M855 Acyl carrier protein) | Mean Ratio (GDI5755_2d vs DMSO_2d) (protein A0A0H3MA04 ATP-dependent zinc metalloprotease FtsH)
1.28: Mean Ratio (protein A0A0H3M9B9 Acetoacetate decarboxylase) | Mean Ratio (protein A0A0H3M9C3 DUF3039 domain-containing protein) | Mean Ratio (protein A0A0H3M9Z9 Probable conserved transmembrane protein rich in alanine and arginine and proline) | Mean Ratio (protein A0A0H3M519 Probable conserved lipoprotein) | Mean Ratio (protein A0A0H3M672 Sirohydrochlorin cobaltochelatase) | Mean Ratio (protein A0A0H3M769 Lipid/polyisoprenoid-binding YceI-like domain-containing protein) | Mean Ratio (protein A0A0H3M918 Protein-export membrane protein SecF) | Mean Ratio (protein A0A0H3MAP0 Conserved hypothetical alanine valine rich protein) | Mean Ratio (protein A0A0H3MAY5 (BCG_0774) Possible protease IV sppA (Endopeptidase IV))
1.27: Mean Ratio (protein A0A0H3MAW6 Uncharacterized protein)
0.742: Mean_Ratio (GDI5755_3d vs DMSO_3d) (protein A0A0H3M469, BCG_1204c (MRA_1152), Probable enoyl-CoA hydratase echA10)
0.739: Mean_Ratio (GDI5755_3d vs DMSO_3d) (protein A0A0H3MA19, BCG_0251 (Rv0214), Probable fatty-acid-CoA ligase fadD4) | Mean_Ratio (GDI5755_3d vs DMSO_3d) (protein A0A0H3MAA7, BCG_0352 (Rv0312), Conserved hypothetical proline and threonine rich protein)
0.761: Mean_Ratio (GDI5755_3d vs DMSO_3d) (protein A0A0H3M848, BCG_3111 (Rv3086), alcohol dehydrogenase, adhD)
1.33: Mean Ratio (GDI5755_2d vs DMSO_2d) (protein A0A0H3M252 Probable glutamine-binding lipoprotein glnH) | Mean Ratio (GDI5755_2d vs DMSO_2d) (protein A0A0H3M639 Probable metal cation transporter P-type atpase G ctpG) | Mean Ratio (GDI5755_2d vs DMSO_2d) (protein A0A0H3MAB2 Conserved membrane protein)
1.38: Mean Ratio (GDI5755_2d vs DMSO_2d) (protein A0A0H3M9U5 Phosphatidate cytidylyltransferase) | Mean Ratio (GDI5755_2d vs DMSO_2d) (protein A0A0H3MAC8 Possible conserved transmembrane protein)
1.26: Mean Ratio (protein A0A0H3M8Y9 Cyclase) | Mean Ratio (protein A0A0H3M9S4 Carrier domain-containing protein) | Mean Ratio (protein A0A0H3M143 peptidoglycan glycosyltransferase) | Mean Ratio (protein A0A0H3M707 Probable conserved integral membrane alanine and valine and leucine rich protein) | Mean Ratio (protein A0A0H3M847 Probable conserved transmembrane alanine rich protein) | Mean Ratio (protein A0A0H3M969 HNH nuclease domain-containing protein) | Mean Ratio (protein A0A0H3MAF8 Serine/threonine-protein kinase PknG)
0.752: Mean_Ratio (GDI5755_3d vs DMSO_3d) (protein A0A0H3M363, BCG_0875c (Rv0822c), Cell envelope-associated transcriptional attenuator LytR-CpsA-Psr, subfamily A1)
0.7: Mean_Ratio (GDI5755_3d vs DMSO_3d) (protein A0A0H3M9N6, BCG_0093 (Rv0062), Glucanase) | Mean_Ratio (GDI5755_3d vs DMSO_3d) (protein A0A0H3M9Q0, BCG_2848c (Rv2828A), COGs COG0840) | Mean_Ratio (GDI5755_3d vs DMSO_3d) (protein A0A0H3M9Z8, BCG_2971c (Rv2950c), Probable fatty-acid-CoA ligase fadD29) | Mean_Ratio (GDI5755_3d vs DMSO_3d) (protein A0A0H3M233, BCG_0693c (Rv0644c), Methoxy mycolic acid synthase 2 mmaA2) | Mean_Ratio (GDI5755_3d vs DMSO_3d) (protein A0A0H3M245, BCG_0704 (Rv0655), Possible ribonucleotide-transport ATP-binding protein ABC transporter mkl) | Mean_Ratio (GDI5755_3d vs DMSO_3d) (protein A0A0H3M476, BCG_0711c (Rv0662c), Ribbon-helix-helix protein CopG domain-containing protein) | Mean_Ratio (GDI5755_3d vs DMSO_3d) (protein A0A0H3M735, BCG_2390c (Rv2376c), Low molecular weight antigen cfp2) | Mean_Ratio (GDI5755_3d vs DMSO_3d) (protein A0A0H3M760, BCG_0066 (Rv0035), Probable fatty-acid-coa ligase fadD34) | Mean_Ratio (GDI5755_3d vs DMSO_3d) (protein A0A0H3M827, BCG_2840c (Rv2821c), CRISPR system Cms endoribonuclease Csm3) | Mean_Ratio (GDI5755_3d vs DMSO_3d) (protein A0A0H3M844, BCG_2251 (Rv2234), Phosphotyrosine protein phosphatase ptpA) | Mean_Ratio (GDI5755_3d vs DMSO_3d) (protein A0A0H3M964, BCG_1004c (Rv0950c), Peptidase M23 domain-containing protein) | Mean_Ratio (GDI5755_3d vs DMSO_3d) (protein A0A0H3MA36, BCG_3704c (Rv3646c), DNA topoisomerase 1) | Mean_Ratio (GDI5755_3d vs DMSO_3d) (protein A0A0H3MAC6, BCG_0385c (Rv0346c), l-asparagine permease ansP2) | Mean_Ratio (GDI5755_3d vs DMSO_3d) (protein A0A0H3MAD2, BCG_0398c (Rv0360c), DUF3151 domain-containing protein) | Mean_Ratio (GDI5755_3d vs DMSO_3d) (protein A0A0H3MAI2, BCG_0498 (Rv0458), Probable aldehyde dehydrogenase) | Mean_Ratio (GDI5755_3d vs DMSO_3d) (protein A0A0H3MAI6, BCG_3192 (Rv3168), Aminoglycoside phosphotransferase domain-containing protein) | Mean_Ratio (GDI5755_3d vs DMSO_3d) (protein A0A0H3MAL3, BCG_3212c (Rv3190c), Restriction endonuclease) | Mean_Ratio (GDI5755_3d vs DMSO_3d) (protein A0A0H3MB50, BCG_3459 (Rv3390), Probable conserved lipoprotein lpqD) | Mean_Ratio (GDI5755_3d vs DMSO_3d) (protein A0A0H3MB93, BCG_3517 (Rv3451), Cutinase) | Mean_Ratio (GDI5755_3d vs DMSO_3d) (protein A0A0H3MB98, BCG_1906c (Rv1870c), Endonuclease) | Mean_Ratio (GDI5755_3d vs DMSO_3d) (protein A0A0H3MBC9, BCG_3565c (Rv3501c), Conserved hypothetical integral membrane protein yrbE4A)
1.31: Mean Ratio (protein A0A0H3M9D8 Possible conserved membrane alanine rich protein) | Mean Ratio (protein A0A0H3M628 Probable lipoprotein lppP) | Mean Ratio (protein A0A0H3MAE2 Probable carbon monoxyde dehydrogenase (Medium chain))
1.30: Mean Ratio (protein A0A0H3M9I1 Probable conserved secreted protein)
0.757: Mean_Ratio (GDI5755_3d vs DMSO_3d) (protein A0A0H3M922, BCG_3278c (Rv3249c), Possible transcriptional regulatory protein (Probably tetR-family)) | Mean_Ratio (GDI5755_3d vs DMSO_3d) (protein A0A0H3MAK6, BCG_0543 (Rv0500A), Helix-turn-helix domain-containing protein)
1.29: Mean Ratio (protein A0A0H3M482 Conserved transmembrane protein)
0.741: Mean_Ratio (GDI5755_3d vs DMSO_3d) (protein A0A0H3MB28, BCG_3433c (Rv3361c), Pentapeptide repeat protein MfpA)
1.39: Mean Ratio (GDI5755_2d vs DMSO_2d) (protein A0A0H3M660 Conserved membrane protein)
0.756: Mean_Ratio (GDI5755_3d vs DMSO_3d) (protein A0A0H3M984, BCG_3389c (Rv3323c), Probable moaD-moaE fusion protein moaX)
1.25: Mean Ratio (protein A0A0H3M9I4 Probable membrane glycine and proline rich protein) | Mean Ratio (protein A0A0H3M9K0 Probable penicillin-binding protein pbpA) | Mean Ratio (protein A0A0H3MAA3 Possible conserved membrane protein)
